Measurements taken from US9340555B2, “Compounds as tyrosine kinase modulators” (Allergan, Inc., priority 2009, dated 2016).

How the values were obtained:
[1] = biological target: VEGFR2 (Homo sapiens (Human), UniProt P35968); experiment: VEGF Stimulated Ca++ Signal In Vitro (Cellular VEGFR2, FLIPR); type: cell-based; conditions: HUVEC, VEGF stimulation (5 ng/mL), intracellular calcium
[2] = biological target: human VEGF receptor (VEGFR-2) (Homo sapiens (Human), UniProt P35968); experiment: VEGFR2 Kinase Assay (Enzymic VEGFR2); type: biochemical; conditions: His-VEGFR-2 cytoplasmic domain, 3.6 µM ATP
Experimental: VEGFR2 Kinase Assay The cytoplasmic domain of the human VEGF receptor (VEGFR-2) was expressed as a Histidine-tagged fusion protein following infection of insect cells using an His engineered baculovirus. […] Kinase assays were performed in 96 well microtiter plates that were coated overnight with 30 µg of poly-Glu-[…]:1) in 10 mM Phosphate Buffered Saline (PBS), pH 7.2-7.4. The plates were incubated with 1% BSA and then washed four times with PBS prior to starting the reaction. […] Reactions were initiated by the addition 0.5 ng of purified protein. Following a ten minute incubation at 25° C., the reactions were washed four times with PBS containing 0.05% Tween-20. 100 µl of a monoclonal anti-phosphotyrosine antibody-peroxidase conjugate was diluted 1:10000 in PBS-Tween-20 and added to the wells for 30 minutes. Following four washes with PBS-Tween-20, 100 µl of 0-phenylenediamine Dihydrochloride in Phosphate-citrate buffer, containing urea hydrogen peroxide, was added to the wells for 7 minutes as a colorimetric substrate for the peroxidase. […] IC50 values for compound inhibition were calculated directly from graphs of optical density (arbitrary units) versus compound concentration following subtraction of blank values.

[3] = biological target: VEGFR1 (Homo sapiens (Human), UniProt P17948); experiment: Enzymic VEGFR1; type: biochemical
[4] = biological target: PDGFRβ (Homo sapiens (Human), UniProt P09619); experiment: Enzymic PDGFRβ; type: biochemical
Sequence of PDGFRβ (P09619 33-1106, species assumed): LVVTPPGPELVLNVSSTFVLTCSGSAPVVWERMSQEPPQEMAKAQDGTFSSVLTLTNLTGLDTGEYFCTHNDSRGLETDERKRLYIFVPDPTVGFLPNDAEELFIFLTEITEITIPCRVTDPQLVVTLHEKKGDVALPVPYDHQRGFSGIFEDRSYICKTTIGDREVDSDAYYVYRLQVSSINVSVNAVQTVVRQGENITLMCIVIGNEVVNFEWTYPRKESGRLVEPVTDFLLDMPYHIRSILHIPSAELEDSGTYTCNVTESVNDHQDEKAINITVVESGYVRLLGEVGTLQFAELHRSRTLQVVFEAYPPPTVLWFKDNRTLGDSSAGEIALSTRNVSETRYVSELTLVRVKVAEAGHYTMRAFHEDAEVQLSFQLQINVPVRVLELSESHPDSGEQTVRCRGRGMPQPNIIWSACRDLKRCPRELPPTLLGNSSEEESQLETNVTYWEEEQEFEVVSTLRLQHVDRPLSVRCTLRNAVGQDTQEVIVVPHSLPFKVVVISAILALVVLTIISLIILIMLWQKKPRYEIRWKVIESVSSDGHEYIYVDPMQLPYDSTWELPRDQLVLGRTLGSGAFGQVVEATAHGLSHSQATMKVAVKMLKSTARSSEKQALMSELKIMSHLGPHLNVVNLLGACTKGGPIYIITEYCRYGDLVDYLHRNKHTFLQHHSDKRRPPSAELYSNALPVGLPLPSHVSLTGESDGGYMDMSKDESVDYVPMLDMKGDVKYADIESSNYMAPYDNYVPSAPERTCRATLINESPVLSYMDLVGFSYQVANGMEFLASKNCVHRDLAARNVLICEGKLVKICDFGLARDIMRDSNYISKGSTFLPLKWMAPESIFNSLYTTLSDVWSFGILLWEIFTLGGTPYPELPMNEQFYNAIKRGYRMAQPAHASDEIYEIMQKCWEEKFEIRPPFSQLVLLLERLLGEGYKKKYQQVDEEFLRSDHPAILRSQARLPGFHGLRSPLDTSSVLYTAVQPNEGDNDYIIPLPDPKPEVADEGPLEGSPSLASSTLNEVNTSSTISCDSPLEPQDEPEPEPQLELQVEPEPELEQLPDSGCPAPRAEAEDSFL

Sequence of VEGFR1 (P17948 27-1338, species assumed): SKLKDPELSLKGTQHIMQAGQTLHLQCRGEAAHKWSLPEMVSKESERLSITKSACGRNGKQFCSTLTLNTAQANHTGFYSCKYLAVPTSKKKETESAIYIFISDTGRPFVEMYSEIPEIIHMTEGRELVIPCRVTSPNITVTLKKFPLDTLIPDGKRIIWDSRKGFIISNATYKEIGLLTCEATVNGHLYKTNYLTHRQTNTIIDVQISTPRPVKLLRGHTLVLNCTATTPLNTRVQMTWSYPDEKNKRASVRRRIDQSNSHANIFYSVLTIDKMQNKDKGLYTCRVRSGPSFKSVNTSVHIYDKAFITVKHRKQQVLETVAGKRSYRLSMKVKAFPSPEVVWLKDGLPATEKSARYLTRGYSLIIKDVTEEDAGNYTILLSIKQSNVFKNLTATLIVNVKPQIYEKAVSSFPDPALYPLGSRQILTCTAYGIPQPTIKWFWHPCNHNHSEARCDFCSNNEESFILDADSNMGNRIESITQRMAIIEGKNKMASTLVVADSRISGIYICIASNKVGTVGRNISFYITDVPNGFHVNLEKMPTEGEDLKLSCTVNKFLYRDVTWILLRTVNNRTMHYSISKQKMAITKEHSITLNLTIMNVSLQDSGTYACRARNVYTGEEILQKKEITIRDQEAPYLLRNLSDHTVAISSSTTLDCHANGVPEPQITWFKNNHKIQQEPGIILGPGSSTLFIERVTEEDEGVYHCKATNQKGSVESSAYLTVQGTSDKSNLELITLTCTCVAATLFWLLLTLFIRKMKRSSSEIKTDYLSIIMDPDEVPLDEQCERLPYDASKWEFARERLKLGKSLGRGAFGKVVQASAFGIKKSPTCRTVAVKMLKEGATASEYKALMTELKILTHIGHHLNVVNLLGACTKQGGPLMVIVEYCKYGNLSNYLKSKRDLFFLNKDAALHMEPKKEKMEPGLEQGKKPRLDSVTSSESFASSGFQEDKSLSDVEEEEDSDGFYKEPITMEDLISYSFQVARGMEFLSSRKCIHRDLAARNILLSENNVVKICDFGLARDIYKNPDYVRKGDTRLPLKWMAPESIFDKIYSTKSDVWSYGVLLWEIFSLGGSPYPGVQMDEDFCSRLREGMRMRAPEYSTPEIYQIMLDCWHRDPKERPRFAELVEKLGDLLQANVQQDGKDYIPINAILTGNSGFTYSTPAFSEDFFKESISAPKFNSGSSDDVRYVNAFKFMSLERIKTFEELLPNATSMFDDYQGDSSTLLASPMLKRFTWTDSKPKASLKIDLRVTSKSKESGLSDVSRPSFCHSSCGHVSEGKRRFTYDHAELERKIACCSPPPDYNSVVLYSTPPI
Sequence of VEGFR2 (P35968 20-1356): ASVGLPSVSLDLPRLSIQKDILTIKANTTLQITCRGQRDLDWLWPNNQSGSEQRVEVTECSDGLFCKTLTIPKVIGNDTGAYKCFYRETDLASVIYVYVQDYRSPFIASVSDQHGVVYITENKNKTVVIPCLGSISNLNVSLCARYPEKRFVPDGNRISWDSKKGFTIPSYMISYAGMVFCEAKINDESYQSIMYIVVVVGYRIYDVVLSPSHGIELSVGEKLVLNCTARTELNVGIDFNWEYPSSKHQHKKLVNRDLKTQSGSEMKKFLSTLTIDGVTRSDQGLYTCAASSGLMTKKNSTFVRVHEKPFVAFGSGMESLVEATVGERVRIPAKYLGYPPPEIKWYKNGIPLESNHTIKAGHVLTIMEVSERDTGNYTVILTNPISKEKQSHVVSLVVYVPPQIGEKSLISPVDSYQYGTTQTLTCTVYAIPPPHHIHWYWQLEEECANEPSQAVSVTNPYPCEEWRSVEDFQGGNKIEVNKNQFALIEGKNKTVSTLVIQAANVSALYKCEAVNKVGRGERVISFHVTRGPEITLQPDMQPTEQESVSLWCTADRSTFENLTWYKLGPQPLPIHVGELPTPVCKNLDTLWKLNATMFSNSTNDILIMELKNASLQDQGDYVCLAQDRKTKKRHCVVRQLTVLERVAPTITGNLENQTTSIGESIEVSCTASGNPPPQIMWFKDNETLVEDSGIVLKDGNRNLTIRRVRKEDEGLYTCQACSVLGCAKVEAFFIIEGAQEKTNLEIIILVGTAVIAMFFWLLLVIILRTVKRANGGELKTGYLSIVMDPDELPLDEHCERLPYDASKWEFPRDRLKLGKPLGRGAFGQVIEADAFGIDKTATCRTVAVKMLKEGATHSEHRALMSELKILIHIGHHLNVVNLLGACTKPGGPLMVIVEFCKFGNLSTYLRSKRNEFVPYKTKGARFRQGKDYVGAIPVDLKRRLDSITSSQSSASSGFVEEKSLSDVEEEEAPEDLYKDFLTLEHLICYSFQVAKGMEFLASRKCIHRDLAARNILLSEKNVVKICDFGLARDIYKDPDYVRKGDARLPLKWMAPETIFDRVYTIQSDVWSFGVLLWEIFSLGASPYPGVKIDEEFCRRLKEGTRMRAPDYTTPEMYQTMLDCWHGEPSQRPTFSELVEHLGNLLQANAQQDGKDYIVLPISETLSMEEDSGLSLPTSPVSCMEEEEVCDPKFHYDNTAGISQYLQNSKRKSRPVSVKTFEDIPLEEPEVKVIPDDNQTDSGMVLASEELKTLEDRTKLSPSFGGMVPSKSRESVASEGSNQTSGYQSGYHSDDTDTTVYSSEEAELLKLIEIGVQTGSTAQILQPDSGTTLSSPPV
Sequence of human VEGF receptor (VEGFR-2) (P35968 786-1356): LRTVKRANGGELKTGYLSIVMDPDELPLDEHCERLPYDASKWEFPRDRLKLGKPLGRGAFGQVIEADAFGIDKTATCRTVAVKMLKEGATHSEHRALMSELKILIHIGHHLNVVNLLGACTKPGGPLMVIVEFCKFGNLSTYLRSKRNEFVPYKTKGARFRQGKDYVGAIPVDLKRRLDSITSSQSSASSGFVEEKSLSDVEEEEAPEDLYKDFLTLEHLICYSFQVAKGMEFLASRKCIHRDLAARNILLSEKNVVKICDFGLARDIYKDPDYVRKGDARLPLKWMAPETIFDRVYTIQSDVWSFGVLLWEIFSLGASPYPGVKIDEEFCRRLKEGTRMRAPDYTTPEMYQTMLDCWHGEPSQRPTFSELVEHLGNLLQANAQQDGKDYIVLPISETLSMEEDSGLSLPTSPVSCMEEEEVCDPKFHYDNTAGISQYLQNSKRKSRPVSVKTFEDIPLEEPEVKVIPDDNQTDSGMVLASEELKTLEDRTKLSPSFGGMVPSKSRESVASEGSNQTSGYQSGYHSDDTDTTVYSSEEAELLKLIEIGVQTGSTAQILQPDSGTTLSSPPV

IC50 [1]	IC50 [2]	IC50 [3]	IC50 [4]	Compound
1 nM	7 nM	9 nM		Cc1ccc(F)c(NC(=O)Nc2ccc(Oc3ccnc4cc(C(=O)NCCCN5CCOC(CO)C5)sc34)cc2F)c1 (stereo not shown) [Example 37, 7-[3-fluoro-4-({[(2-fluoro-5-methylphenyl)amino]carbonyl}amino)phenoxy]-N-{3-[2-(hydroxymethyl)morpholin-4-yl]propyl}thieno[3,2-b]pyridine-2-carboxamide]
2 nM	5 nM	8 nM		COC(=O)[C@@H]1C[C@@H](O)CN1CCCNC(=O)c1cc2nccc(Oc3ccc(NC(=O)Nc4cc(C)ccc4F)c(F)c3)c2s1 [Example 39, methyl (2S,4R)-1-{3-[({7-[3-fluoro-4-({[(2-fluoro-5-methylphenyl)amino]carbonyl}amino)phenoxy]thieno[3,2-b]pyridin-2-yl}carbonyl)amino]propyl}-4-hydroxypyrrolidine-2-carboxylate]
11 nM	4 nM	5 nM	13 nM	CCN(CC)CCNC(=O)c1cc2nccc(Oc3ccc(NC(=O)Nc4cc(C)ccc4F)cc3)c2s1 [Example 69, N-[2-(diethylamino)ethyl]-7-[4-({[(2-fluoro-5-methylphenyl)amino]carbonyl}amino)phenoxy]thieno[3,2-b]pyridine-2-carboxamide]
80 nM	16 nM	18 nM		Cc1ccc(F)c(NC(=O)Nc2ccc(Oc3ccnc4cc(C(=O)NCCCN5CCC(C(=O)O)C5)sc34)cc2F)c1 (stereo not shown) [Example 50, 1-{3-[({7-[3-fluoro-4-({[(2-fluoro-5-methylphenyl)amino]carbonyl}amino)phenoxy]thieno[3,2-b]pyridin-2-yl}carbonyl)amino]propyl}pyrrolidine-3-carboxylic acid]
1 nM	14 nM	15 nM		CCOC(=O)CCCNC(=O)c1cc2nccc(Oc3ccc(NC(=O)Nc4cc(C)ccc4F)c(F)c3)c2s1 [Example 57, ethyl 4-[({7-[3-fluoro-4-({[(2-fluoro-5-methylphenyl)amino]carbonyl}amino)phenoxy]thieno[3,2-b]pyridin-2-yl}carbonyl)amino]butanoate]
39 nM	3 nM	3 nM	10 nM	Cc1ccc(F)c(NC(=O)Nc2ccc(Oc3ccnc4cc(C(=O)NCCCN5CCCC(CO)C5)sc34)cc2)c1 (stereo not shown) [Example 15, 7-[4-({[(2-fluoro-5-methylphenyl)amino]carbonyl}amino)phenoxy]-N-{3-[3-(hydroxymethyl)piperidin-1-yl]propyl}thieno[3,2-b]pyridine-2-carboxamide]
2 nM	12 nM	7 nM		Cc1ccc(F)c(NC(=O)Nc2ccc(Oc3ccnc4cc(C(=O)NCCCC(=O)O)sc34)cc2)c1 [Example 65, 4-[({7-[4-({[(2-fluoro-5-methylphenyl)amino]carbonyl}amino)phenoxy]thieno[3,2-b]pyridin-2-yl}carbonyl)amino]butanoic acid]
9 nM	7 nM	13 nM	14 nM	CCOC(=O)N1CCN(CCNC(=O)c2cc3nccc(Oc4ccc(NC(=O)Nc5cc(C)ccc5F)c(F)c4)c3s2)CC1 [Example 23, ethyl 4-{2-[({7-[3-fluoro-4-({[(2-fluoro-5-methylphenyl)amino]carbonyl}amino)phenoxy]thieno[3,2-b]pyridin-2-yl}carbonyl)amino]ethyl}piperazine-1-carboxylate]
97 nM	6 nM	10 nM	19 nM	Cc1ccc(F)c(NC(=O)Nc2ccc(Oc3ccnc4cc(C(=O)NCCc5nn[nH]n5)sc34)cc2)c1 [Example 13, 7-[4-({[(2-fluoro-5-methylphenyl)amino]carbonyl}amino)phenoxy]-N-[2-(2H-tetrazol-5-yl)ethyl]thieno[3,2-b]pyridine-2-carboxamide]
14 nM	7 nM	8 nM		Cc1ccc(F)c(NC(=O)Nc2ccc(Oc3ccnc4cc(C(=O)NCCCN5CCC(O)CC5)sc34)cc2F)c1 [Example 38, 7-[3-fluoro-4-({[(2-fluoro-5-methylphenyl)amino]carbonyl}amino)phenoxy]-N-[3-(4-hydroxypiperidin-1-yl)propyl]thieno[3,2-b]pyridine-2-carboxamide]
0.3 nM	4 nM	9 nM	14 nM	COC(=O)CN(CCCNC(=O)c1cc2nccc(Oc3ccc(NC(=O)Nc4cc(C)ccc4F)cc3)c2s1)CC(=O)OC [Example 19, dimethyl 2,2′-({3-[({7-[4-({[(2-fluoro-5-methylphenyl)amino]carbonyl}amino)phenoxy]thieno[3,2-b]pyridin-2-yl}carbonyl)amino]propyl}imino)diacetate]
	4 nM	11 nM	15 nM	Cc1ccc(F)c(NC(=O)Nc2ccc(Oc3ccnc4cc(C(=O)NCCN)sc34)cc2F)c1 [Example 32, N-(2-aminoethyl)-7-[3-fluoro-4-({[(2-fluoro-5-methylphenyl)amino]carbonyl}amino)phenoxy]thieno[3,2-b]pyridine-2-carboxamide]
126 nM	3 nM	4 nM	20 nM	Cc1ccc(F)c(NC(=O)Nc2ccc(Oc3ccnc4cc(C(=O)NCCCc5nn[nH]n5)sc34)cc2)c1 [Example 12, 7-[4-({[(2-fluoro-5-methylphenyl)amino]carbonyl}amino)phenoxy]-N-[3-(2H-tetrazol-5-yl)propyl]thieno[3,2-b]pyridine-2-carboxamide]
34 nM	4 nM	5 nM	13 nM	CCOC(=O)CN1CCN(CCCNC(=O)c2cc3nccc(Oc4ccc(NC(=O)Nc5cc(C)ccc5F)cc4)c3s2)CC1 [Example 14, ethyl (4-{3-[({7-[4-({[(2-fluoro-5-methylphenyl)amino]carbonyl}amino)phenoxy]thieno[3,2-b]pyridin-2-yl}carbonyl)amino]propyl}piperazin-1-yl)acetate]
	5 nM	8 nM	11 nM	COC(=O)CNCCCNC(=O)c1cc2nccc(Oc3ccc(NC(=O)Nc4cc(C)ccc4F)c(F)c3)c2s1 [Example 25, methyl ({3-[({7-[3-fluoro-4-({[(2-fluoro-5-methylphenyl)amino]carbonyl}amino)phenoxy]thieno[3,2-b]pyridin-2-yl}carbonyl)amino]propyl}amino)acetate]
	5 nM	10 nM	12 nM	COC(=O)CN(CCCNC(=O)c1cc2nccc(Oc3ccc(NC(=O)Nc4cc(C)ccc4F)c(F)c3)c2s1)CC(=O)OC [Example 26, dimethyl 2,2′-({3-[({7-[3-fluoro-4-({[(2-fluoro-5-methylphenyl)amino]carbonyl}amino)phenoxy]thieno[3,2-b]pyridin-2-yl}carbonyl)amino]propyl}imino)diacetate]
